# Experimental data taken from patent US9006243B2, “HIV inhibiting 6-substituted pyrimidines” (Janssen R&D Ireland, priority 2006, dated 2015).
# Read-outs that look alike come from different tables or passages of the source.
# Legend:
# [1] = molecular target: HIV strain MDR (L100I, K103N, Y181C, E138G, V179I, L2214F, V278V/I and A327A/V in HIV reverse transcriptase); assay: microbe, parasite or virus in culture; type: cell-based, HIV-1; conditions: for MDR pEC50 (−log EC50): MDR HIV strain (multiple RT mutations), MT4 LTR-EGFP cells, three days after infection; for EC50: Human immunodeficiency virus 1, 72 h, read-out: MDR pEC50 (−log EC50) (converted)
# Description: (§1) Image analysis allows very sensitive detection of viral infection.
# “MDR” refers to a strain that contains mutations L100I, K103N, Y181C, E138G, V179I, L2214F, V278V/I and A327A/V in HIV reverse transcriptase.
# HIV strain Y181C = assay: microbe, parasite or virus in culture; type: cell-based, HIV-1; conditions: for Y181C pEC50 (−log EC50): HIV strain Y181C, MT4 LTR-EGFP cells, three days after infection; for EC50: Human immunodeficiency virus 1, 72 h, read-out: Y181C pEC50 (−log EC50) (converted)
# Description: as §1
# HIV strain K103N + Y181C = assay: microbe, parasite or virus in culture; type: cell-based, HIV-1; conditions: for K103N + Y181C pEC50 (−log EC50): HIV strain K103N + Y181C, MT4 LTR-EGFP cells, three days after infection; for EC50: Human immunodeficiency virus 1, 72 h, read-out: K103N + Y181C pEC50 (−log EC50) (converted)
# Description: as §1
# HIV strain L100I + K103N = assay: microbe, parasite or virus in culture; type: cell-based, HIV-1; conditions: for L100I + K103N pEC50 (−log EC50): HIV strain L100I + K103N, MT4 LTR-EGFP cells, three days after infection; for EC50: Human immunodeficiency virus 1, 72 h, read-out: L100I + K103N pEC50 (−log EC50) (converted)
# Description: as §1
# [2] = system: HIV strain IIIB (wild type); assay: microbe, parasite or virus in culture; conditions: for EC50: Human immunodeficiency virus 1, IIIB, 72 h, read-out: IIIB pEC50 (−log EC50) (converted)
# Method: Compounds of the invention were tested for their potency against wild type virus and clinically isolated HIV strains harboring one or more mutations associated with resistance to reverse transcriptase inhibitors. Antiviral activity was evaluated using a cellular assay performed according to the following procedure.
# The human T-cell line MT4 was engineered with Green Fluorescent Protein (GFP) and a HIV-specific promoter, HIV-1 long terminal repeat (LTR). This cell line, designated MT4 LTR-EGFP, can be used for the in vitro evaluation of anti-HIV activity of investigational compounds. In HIV-1 infected cells, the Tat protein is produced, which upregulates the LTR promotor and eventually leads to stimulation of the GFP reporter production, allowing to measure ongoing HIV-infection fluorometrically.
# Analogously, MT4 cells were engineered with GFP and the constitutional cytomegalovirus (CMV) promotor. […] Cytotoxic investigational compounds reduce GFP levels of mock-infected MT4 CMV-EGFP cells.
# The ratio of CC50 to EC50 is defined as the selectivity index (SI) and is an indication of the selectivity of the anti-HIV activity of the inhibitor. The ultimate monitoring of HIV-1 infection and cytotoxicity was done using a scanning microscope. Image analysis allows very sensitive detection of viral infection. Measurements were done before cell necrosis, which usually takes place about five days after infection, in particular measurements were performed three days after infection.
# The columns IIIB, L100I, etc. in the table list the pEC50 (−log EC50) values against various strains IIIB, L100I, etc.; pSI lists the −log SI values.
# Strain IIIB is wild type HIV strain.
# [3] = wild type HIV strain IIIB, MT4 LTR-EGFP cells, GFP fluorescence, three days after infection
Structure (SMILES),MDR pEC50 (−log EC50) [1],Y181C pEC50 (−log EC50) (HIV strain Y181C),K103N + Y181C pEC50 (−log EC50) (HIV strain K103N + Y181C),L100I + K103N pEC50 (−log EC50) (HIV strain L100I + K103N),IIIB pEC50 (−log EC50) [2],"IIIB pEC50 (−log EC50) [2, 3]",EC50 [1],EC50 (HIV strain Y181C),EC50 (HIV strain K103N + Y181C),melting point,EC50 [2],EC50 (HIV strain L100I + K103N)
Cc1cc(C=CC#N)cc(C)c1Nc1cc(CN2CCOCC2)nc(Nc2ccc(C#N)cc2)n1 (mixture of isomers) [Compound 12],5.57,7.28,6.78,6.50,8.62,–,–,–,–,–,–,–
Cc1cc(C=CC#N)cc(C)c1Nc1cc(Cn2ccnc2)nc(Nc2ccc(C#N)cc2)n1 (mixture of isomers) [Compound 19],5.32,7.68,6.97,6.83,–,8.48,–,–,–,–,–,–
Cc1cc(C=CC#N)cc(C)c1Nc1cc(CNCCCN2CCOCC2)nc(Nc2ccc(C#N)cc2)n1 (mixture of isomers) [Compound 29],5.67,7.06,7.01,6.66,–,7.70,–,–,–,–,–,–
Cc1cc(/C=C/C#N)cc(C)c1Nc1cc(CN2CCN(C)CC2)nc(Nc2ccc(C#N)cc2)n1 [Compound 13],5.59,7.79,7.68,7.20,–,8.54,–,–,–,–,–,–
CCOP(=O)(OCC)OCc1cc(Nc2c(C)cc(/C=C/C#N)cc2C)nc(Nc2ccc(C#N)cc2)n1 [Compound 32],6.40,7.60,7.50,7.20,–,8.50,–,–,–,–,–,–
CON(C)Cc1cc(Nc2c(C)cc(C=CC#N)cc2C)nc(Nc2ccc(C#N)cc2)n1 (mixture of isomers) [Compound 18],6.33,8.06,7.79,7.48,–,9.05,–,–,–,–,–,–
COCC(C)NCc1cc(Nc2c(C)cc(C=CC#N)cc2C)nc(Nc2ccc(C#N)cc2)n1 (mixture of isomers) [Compound 23],5.67,7.72,7.78,6.98,–,8.80,–,–,–,–,–,–
Cc1cc(C=CC#N)cc(C)c1Nc1cc(CNCC2CCCO2)nc(Nc2ccc(C#N)cc2)n1 (mixture of isomers) [Compound 28],5.68,7.81,7.82,7.27,–,8.68,–,–,–,–,–,–
Cc1cc(C=CC#N)cc(C)c1Nc1cc(CNCc2ccccn2)nc(Nc2ccc(C#N)cc2)n1 (mixture of isomers) [Compound 25],5.75,7.03,7.30,–,–,7.63,–,–,–,–,–,–
COCCNCc1cc(Nc2c(C)cc(C=CC#N)cc2C)nc(Nc2ccc(C#N)cc2)n1 (mixture of isomers) [Compound 15],5.55,7.89,7.86,7.42,–,8.54,–,–,–,–,–,–
Cc1cc(C=CC#N)cc(C)c1Nc1cc(CN(C)CC#N)nc(Nc2ccc(C#N)cc2)n1 [Compound 21],5.70,7.73,7.71,7.16,–,8.47,–,–,–,–,–,–
Cc1cc(C=CC#N)cc(C)c1Nc1cc(CNCc2cccs2)nc(Nc2ccc(C#N)cc2)n1 (mixture of isomers) [Compound 31],5.48,7.48,7.71,7.13,–,8.41,–,–,–,–,–,–
Cc1cc(C=CC#N)cc(C)c1Nc1cc(CNCCc2ccc(S(N)(=O)=O)cc2)nc(Nc2ccc(C#N)cc2)n1 (mixture of isomers) [Compound 17],5.56,7.01,7.04,6.41,–,7.80,–,–,–,–,–,–
Cc1cc(/C=C/C#N)cc(C)c1Nc1cc(C(=O)NCc2ccncc2)nc(Nc2ccc(C#N)cc2)n1 [Compound 7],–,–,–,–,–,–,2340 nM,16.6 nM,17.8 nM,202 °C,4.17 nM,–
Cc1cc(C=CC#N)cc(C)c1Nc1cc(CNCC2COC(C)(C)O2)nc(Nc2ccc(C#N)cc2)n1 (mixture of isomers) [Compound 16],5.64,7.60,7.61,7.06,8.54,–,–,–,–,–,–,–
Cc1cc(/C=C/C#N)cc(C)c1Nc1cc(C(=O)c2nccs2)nc(Nc2ccc(C#N)cc2)n1 [Compound 10],–,–,–,–,–,–,562 nM,3.47 nM,10.7 nM,–,2.82 nM,4.79 nM
Cc1cc(/C=C/C#N)cc(C)c1Nc1cc(CNCc2cccnc2)nc(Nc2ccc(C#N)cc2)n1 [Compound 27],–,–,–,–,–,–,1170 nM,16.2 nM,3.09 nM,–,3.8 nM,–
C=CCNCc1cc(Nc2c(C)cc(C=CC#N)cc2C)nc(Nc2ccc(C#N)cc2)n1 (mixture of isomers) [Compound 24],5.75,8.14,7.84,7.31,9.16,–,–,–,–,–,–,–
C=CCOCc1cc(Nc2c(C)cc(/C=C/C#N)cc2C)nc(Nc2ccc(C#N)cc2)n1 [Compound 2],4.95,7.74,7.15,7.12,–,8.44,–,–,–,–,–,–
Cc1cc(/C=C/C#N)cc(C)c1Nc1cc(COC(N)=O)nc(Nc2ccc(C#N)cc2)n1 [Compound 33],6.20,7.70,8.00,7.10,–,8.40,–,–,–,–,–,–
Cc1cc(C=CC#N)cc(C)c1Nc1cc(CNCC2CC2)nc(Nc2ccc(C#N)cc2)n1 (mixture of isomers) [Compound 14],5.67,7.85,7.76,7.00,–,8.52,–,–,–,–,–,–
COc1ccccc1C(O)c1cc(Nc2c(C)cc(/C=C/C#N)cc2C)nc(Nc2ccc(C#N)cc2)n1 (stereo not shown) [Compound 3],–,–,–,–,–,–,2950 nM,105 nM,263 nM,–,7.24 nM,95.5 nM
Cc1cc(C=CC#N)cc(C)c1Nc1cc(CNCc2ccco2)nc(Nc2ccc(C#N)cc2)n1 (mixture of isomers) [Compound 26],5.57,7.62,8.07,–,–,8.43,–,–,–,–,–,–
Cc1cc(C=CC#N)cc(C)c1Nc1cc(CNCc2ccncc2)nc(Nc2ccc(C#N)cc2)n1 (mixture of isomers) [Compound 30],5.80,7.69,7.89,7.56,–,8.55,–,–,–,–,–,–
Cc1cc(C=CC#N)cc(C)c1Nc1cc(CNCCc2ccccn2)nc(Nc2ccc(C#N)cc2)n1 (mixture of isomers) [Compound 20],5.30,6.99,6.96,6.33,–,8.46,–,–,–,–,–,–
CC(=O)NCCNCc1cc(Nc2c(C)cc(C=CC#N)cc2C)nc(Nc2ccc(C#N)cc2)n1 (mixture of isomers) [Compound 22],5.50,7.09,7.02,6.35,–,7.93,–,–,–,–,–,–
